Measurements: patent US8334268B2, “Insecticidal active ingredient combinations (formononetins + insecticides)” (priority 2006, dated 2012)

System: Meloidogyne incognita
Experiment: Meloidogyne incognita test (MELGIN), gall formation on lettuce roots
Type: in vivo
Details: 0.5 mg ai/seed, lettuce seed dressing; nematicidal action by formation of galls; 100% = no galls
Experimental: To produce a suitable preparation of active compound, 1 part by weight of active compound is mixed with the stated amounts of solvent and emulsifier, and the concentrate is diluted with water to the desired concentration.
Lettuce seeds are dressed with the desired amount of formononetin. Vessels are filled with soil infected with mycorrhiza, active compound solution, Meloidogyne incognita egg/larvae suspension and the treated lettuce seeds. The lettuce seeds germinate and the plants develop. On the roots, galls are formed.
After the desired period of time, the nematicidal action is determined in % by the formation of galls. 100% means that no galls have been found; 0% means that the number of galls on the treated plants corresponds to that of the untreated control.

## COc1ccc(-c2coc3cc(O)ccc3c2=O)cc1 [Formononetin of the formula (I), formononetin]
  Effect in % after 21 d: 3.3%
